Laboratory results as given in patent US20160304552A1, “MODIFIED NUCLEIC ACID MOLECULES AND USES THEREOF” (MODERNA THERAPEUTICS, INC., priority 2013, published 2016).

Key:
HeLa cells [1] = experiment: Transfection in HeLa cells, human GCSF modRNA (GCSF ELISA of supernatant); assay type: cell-based; details: Table 22, 250 ng modRNA, 18 h to 22 h
Method: (§1) The day before transfection, 20.000 HeLa cells (ATCC no. CCL-2; Manassas, Va.) were harvested by treatment with Trypsin-EDTA solution (LifeTechnologies, Grand Island, N.Y.) and seeded in a total volume of 100 ul EMEM medium (supplemented with 10% FCS and 1× Glutamax) per well in a 96-well cell culture plate (Corning, Manassas, Va.). The cells were grown at 37° C. in 5% CO2 atmosphere overnight. Next day, 83 ng of Luciferase modRNA or 250 ng of human GCSF modRNA, harboring chemical modifications on the bases or the ribose units, were diluted in 10 ul final volume of OPTI-MEM (LifeTechnologies, Grand Island, N.Y.). Lipofectamine 2000 (LifeTechnologies, Grand Island, N.Y.) was used as transfection reagent and 0.2 μl were diluted in 10 ul final volume of OPTI-MEM. After 5 min incubation at room temperature, both solutions were combined and incubated additional 15 min at room temperature. Then the 20 μl were added to the 100 ul cell culture medium containing the HeLa cells. The plates were then incubated as described before.
(§2) After 18 h to 22 h incubation, cell culture supernatants of cells expressing human GCSF or human EPO were collected and centrifuged at 10.000 rcf for 2 min. The cleared supernatants were transferred and analyzed with a human GCSF-specific or EPO ELISA kit (both from R&D Systems, Minneapolis, Minn.; Cat. #s SCS50, DEP00, respectively) according to the manufacturer instructions. All samples were diluted until the determined values were within the linear range of the human GCSF or EPO ELISA standard curve.

HeLa cells [2] = experiment: Transfection in HeLa cells, Luciferase modRNA (luciferase assay, relative light units); assay type: cell-based, human; details: Table 22, 83 ng modRNA, Lipofectamine 2000, 18 h to 22 h
Method: as §1
After 18 h to 22 h incubation, cells expressing luciferase were lysed with 100 μl Passive Lysis Buffer (Promega, Madison, Wis.) according to manufacturer instructions. Aliquots of the lysates were transferred to white opaque polystyrene 96-well plates (Corning, Manassas, Va.) and combined with 100 ul complete luciferase assay solution (Promega, Madison, Wis.). The lysate volumes were adjusted or diluted until no more than 2 mio relative light units per well were detected for the strongest signal producing samples. […] The plate reader was a BioTek Synergy H1 (BioTek, Winooski, Vt.).

HeLa cells [3] = experiment: Transfection in HeLa cells, human EPO modRNA (EPO ELISA of supernatant); assay type: cell-based; details: Table 22, 18 h to 22 h
Method: as §1, §2

[4] = tested on: Rabbit Reticulocyte Lysate; experiment: In vitro translation screen, firefly Luciferase modRNA (luciferase assay, relative light units); assay type: biochemical; details: Table 20; 250 ng modRNA, 45 min, 30° C.
Method: (§3) The in vitro translation assay was done with the Rabbit Reticulocyte Lysate (nuclease-treated) kit (Promega, Madison, Wis.; Cat. #L4960) according to the manufacturer's instructions. The reaction buffer was a mixture of equal amounts of the amino acid stock solutions devoid of Leucine or Methionine provided in the kit.
(§4) The modRNAs of firefly Luciferase, human GCSF and human EPO, harboring chemical modifications on either the bases or the ribose units, were diluted in sterile nuclease-free water to a final concentration of 250 ng in 2.5 ul (Stock 100 ng/μl). The modRNA (250 ng) was added to the mixture of freshly prepared Rabbit Reticulocyte Lysate and reaction buffer.
After 45 min incubation, the reaction was stopped by placing the plate on ice. Aliquots of the in vitro translation reaction containing luciferase modRNA were transferred to white opaque polystyrene 96-well plates (Corning, Manassas, Va.; Cat. # CLS3912) and combined with 100 ul complete luciferase assay solution (Promega, Madison, Wis.). The volumes of the in vitro translation reactions were adjusted or diluted until no more than 2 million relative light units per well were detected for the strongest signal producing samples. […] The plate reader was a BioTek Synergy H1 (BioTek, Winooski, Vt.).

[5] = tested on: Rabbit Reticulocyte Lysate; experiment: In vitro translation screen, human GCSF modRNA (GCSF ELISA); assay type: biochemical; details: Table 20; 250 ng modRNA, 45 min, 30° C.
Method: as §3, §4
(§5) Aliquots of the in vitro translation reaction containing human GCSF modRNA or human EPO mRNA were transferred and analyzed with a human GCSF-specific or EPO ELISA kit (both from R&D Systems, Minneapolis, Minn.; Cat. #s SCS50, DEP00 respectively) according to the manufacturer instructions. All samples were diluted until the determined values were within the linear range of the human GCSF or EPO ELISA standard curve.

[6] = tested on: Rabbit Reticulocyte Lysate; experiment: In vitro translation screen, human EPO modRNA (EPO ELISA); assay type: biochemical; details: Table 20; 250 ng modRNA, 45 min, 30° C.
Method: as §3, §4, §5

T7 RNA polymerase = T7 RNA polymerase (Escherichia phage T7, UniProt P00573); experiment: In vitro transcription yields of modified mRNA; assay type: biochemical; details: for EPO In Vitro Transcription yield: EPO mRNA made with the modified NTP(s); for GCSF In Vitro Transcription yield: GCSF mRNA made with the modified NTP(s); for Luc In Vitro Transcription yield: Luciferase mRNA made with the modified NTP(s)
Method: The in vitro transcription reaction generates mRNA containing modified nucleotides or modified RNA. The input nucleotide triphosphate (NTP) mix is made in-house using natural and unnatural NTPs.
A typical in vitro transcription reaction includes the following:
Incubation at 37° C. for 3 hr-5 hrs.
The crude IVT mix may be stored at 4° C. overnight for cleanup the next day. 1 U of RNase-free DNase is then used to digest the original template. After 15 minutes of incubation at 37° C., the mRNA is purified using Ambion's […]™ Kit (Austin, Tex.) following the manufacturer's instructions. This kit can purify up to 500 μg of RNA. Following the cleanup, the RNA is quantified using the NanoDrop and analyzed by agarose gel electrophoresis to confirm the RNA is the proper size and that no degradation of the RNA has occurred.
Modified mRNAs in TE buffer (1 μl) are used for Nanodrop UV absorbance readings to quantitate the yield of each modified mRNA from an in vitro transcription reaction (UV absorbance traces are not shown).

T7 RNA polymerase, sequence (P00573 whole entry): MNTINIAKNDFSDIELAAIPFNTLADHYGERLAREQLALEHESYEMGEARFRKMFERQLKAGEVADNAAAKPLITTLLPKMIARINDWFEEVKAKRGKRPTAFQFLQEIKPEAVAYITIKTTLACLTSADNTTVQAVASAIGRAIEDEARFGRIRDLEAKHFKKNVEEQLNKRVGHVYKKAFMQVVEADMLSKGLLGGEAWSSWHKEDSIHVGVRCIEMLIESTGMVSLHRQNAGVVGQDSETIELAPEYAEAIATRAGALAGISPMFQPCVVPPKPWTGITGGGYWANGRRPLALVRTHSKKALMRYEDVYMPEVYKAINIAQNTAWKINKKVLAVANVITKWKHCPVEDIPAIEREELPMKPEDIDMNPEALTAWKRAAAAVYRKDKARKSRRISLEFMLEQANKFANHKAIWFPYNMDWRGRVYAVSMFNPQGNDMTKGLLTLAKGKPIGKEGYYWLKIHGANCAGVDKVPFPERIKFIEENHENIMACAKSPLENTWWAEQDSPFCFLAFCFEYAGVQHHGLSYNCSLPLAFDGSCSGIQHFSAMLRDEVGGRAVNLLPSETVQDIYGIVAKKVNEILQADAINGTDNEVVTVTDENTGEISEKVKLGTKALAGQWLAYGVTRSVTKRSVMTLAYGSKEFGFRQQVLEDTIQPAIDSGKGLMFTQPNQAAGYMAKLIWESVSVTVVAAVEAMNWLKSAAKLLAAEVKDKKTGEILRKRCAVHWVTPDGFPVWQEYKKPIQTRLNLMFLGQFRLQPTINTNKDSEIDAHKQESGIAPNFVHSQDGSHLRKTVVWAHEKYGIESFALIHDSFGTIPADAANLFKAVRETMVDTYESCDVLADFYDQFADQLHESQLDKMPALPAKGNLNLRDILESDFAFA

Structure (SMILES) | GCSF Expression (HeLa cells [1]) | Luc Expression (RLUs) (HeLa cells [2]) | Epo Expression (HeLa cells [3]) | Luc Expression (RLUs) [4] | GCSF Expression [5] | Epo Expression [6] | EPO In Vitro Transcription yield (T7 RNA polymerase) | GCSF In Vitro Transcription yield (T7 RNA polymerase) | Luc In Vitro Transcription yield (T7 RNA polymerase)
CCn1cc([C@@H]2O[C@H](COP(=O)(O)OP(=O)(O)OP(=O)(O)O)C(O)C2O)c(=O)[nH]c1=O (stereo in doubt) [03601015003 (172), 1-Ethyl-pseudo-UTP] | 209300 pg/mL | 130.50 RLUs | 52780 pg/mL | 122 RLUs | 5700 pg/mL | 7894 pg/mL | 1.095 mg | 0.5464 mg | 0.6304 mg
Cc1cn([C@@H]2O[C@H](COP(=O)(O)OP(=O)(O)OP(=O)(O)O)C(O)C2O)c(=S)[nH]c1=O (stereo in doubt) [00901013004 (4), 5-Methyl-2-thio-UTP] | 16420 pg/mL |  | 8333 pg/mL | 235 RLUs | 2319 pg/mL | 1100 pg/mL | 0.8717 mg | 0.4682 mg | 0.7580 mg
O=c1ccn([C@@H]2O[C@H](COP(O)(=S)OP(=O)(O)OP(=O)(O)O)C(O)C2O)c(=O)[nH]1 (stereo in doubt) [Compound 00902013001, Alpha-thio-UTP] | 73570 pg/mL | 937.0 RLUs | 190700 pg/mL | 51180 RLUs | 20530 pg/mL | 14260 pg/mL | 0.2666 mg | 0.2605 mg | 0.3510 mg
Nc1ccn([C@@H]2O[C@H](COP(O)(=S)OP(=O)(O)OP(=O)(O)O)C(O)C2O)c(=O)n1 (stereo in doubt) [Compound 00902014001, Alpha-thio-CTP] | 285000.00 pg/mL | 1845 RLUs | 195400 pg/mL | 142900 RLUs | 26930 pg/mL | 17000 pg/mL | 0.2669 mg | 0.2650 mg | 0.3352 mg
CCCn1cc([C@@H]2O[C@H](COP(=O)(O)OP(=O)(O)OP(=O)(O)O)C(O)C2O)c(=O)[nH]c1=O (stereo in doubt) [03601015004 (173), 1-Propyl-pseudo-UTP] | 10000 pg/mL |  | 0.00 pg/mL | 140 RLUs | 1613 pg/mL | 838 pg/mL | 0.9920 mg | 0.5976 mg | 0.4971 mg
NC/C=C/c1cn([C@@H]2O[C@H](COP(=O)(O)OP(=O)(O)OP(=O)(O)O)C(O)C2O)c(=O)nc1N (stereo in doubt) [03601014009 (381), 5-Aminoallyl-CTP] | 24290 pg/mL | 319.00 RLUs | 3488 pg/mL | 887 RLUs | 1806 pg/mL | 169 pg/mL | 0.4943 mg | 0.4567 mg | 0.3471 mg
Nc1ncc2ncn([C@@H]3O[C@H](COP(=O)(O)OP(=O)(O)OP(=O)(O)O)C(O)C3O)c2n1 (stereo in doubt) [03601012004 (382), 2-Aminopurine-riboside TP] | 39290 pg/mL | 713.50 RLUs | 56980 pg/mL | 107000 RLUs | 8675 pg/mL | 22180 pg/mL | 0.0125 mg | 0.2919 mg | 0.0690 mg
NC/C=C/c1cn([C@@H]2O[C@H](COP(=O)(O)OP(=O)(O)OP(=O)(O)O)C(O)C2O)c(=O)[nH]c1=O (stereo in doubt) [Compound 00901013010, 5-Aminoallyl-UTP] | 40710 pg/mL | 1946 RLUs | 67440 pg/mL | 14870 RLUs | 3706 pg/mL | 1863 pg/mL | 0.3732 mg | 0.4206 mg | 0.3513 mg
O=c1ccn([C@@H]2O[C@H](COP(=O)(O)OP(=O)(O)OP(=O)(O)O)C(O)C2O)c(=S)[nH]1 (stereo in doubt) [Compound 00901013008, 2-Thio-UTP] | 214300 pg/mL | 423.00 RLUs | 182600 pg/mL | 1181 RLUs | 3744 pg/mL | 1894 pg/mL | 0.3630 mg | 0.3359 mg | 0.2792 mg
Nc1nc(=O)n([C@@H]2O[C@H](COP(=O)(O)OP(=O)(O)OP(=O)(O)O)C(O)C2O)cc1C(F)(F)F (stereo in doubt) [00901014003 (351), 5-Trifluoromethyl-CTP] | 1039000 pg/mL | 32250 RLUs | 668100 pg/mL | 23340 RLUs | 31510 pg/mL | 10200 pg/mL | 0.7886 mg | 0.7710 mg | 0.5097 mg
COC(=O)COc1cn([C@@H]2O[C@H](COP(=O)(O)OP(=O)(O)OP(=O)(O)O)C(O)C2O)c(=O)[nH]c1=O (stereo in doubt) [00901013004 (348), UTP-5-oxyacetic acid Me ester] | 5714 pg/mL |  | 8333 pg/mL | 162 RLUs | 4388 pg/mL | 544 pg/mL | 0.3859 mg | 0.3836 mg | 0.6348 mg
